Columns and labels:
mMC5R = mMC5R (Mus musculus, UniProt P41149); assay: cAMP based functional bioassay (CRE/β-galactosidase reporter), agonist activity at mMC5R
Protocol: (§1) The compounds were evaluated using a whole cell assay.
(§2) Compounds were dissolved in DMSO at a stock concentration of 10^−2 M and stored at −20° C. until assayed. HEK-293 cells stably expressing the selected melanocortin receptors were transiently transfected with 4 μg of CRE/β-galactosidase reporter gene. Briefly, 5000-15000 post transfection cells were plated into collagen treated 96-well plates (Nunc) and incubated overnight. […] The assay media was aspirated, and 50 μL of lysis buffer (250 mM Tris-HCl pH=8.0 and 0.1% Triton X-100) was added. The plates were stored at −80° C. overnight. The plates containing the cell lysates were thawed the following day. Aliquots of 10 μL were taken from each well and transferred to another 96-well plate for relative protein determination. To the cell lysate plates, 40 μL of phosphate-buffered saline with 0.5% BSA was added to each well. Subsequently, 150 μL of substrate buffer (60 mM sodium phosphate, 1 mM MgCl2, 10 mM KCl, 5 mM β-mercaptoethanol, 2 mg/mL ONPG) was added to each well and the plates were incubated at 37° C. The sample absorbance, OD405, was measured using a 96-well plate reader (Molecular Devices). The relative protein was determined by adding 200 μL of 1:5 dilution BioRad G250 protein dye:water to the 10 μL of cell lysate sample taken previously, and the OD595 was measured on a 96-well plate reader (Molecular Devices). Data points were normalized to forskolin and the relative protein content were used as positive controls. The EC50 values represent the mean of three or more independent experiments. The EC50 estimates, and their associated standard errors of the mean, were determined by fitting the data to a nonlinear least-squares analysis using the PRISM program (v4.0, GraphPad Inc.).
(§3) The results are tabulated in the form of EC50 values. In the case where the particular receptor was not activated to full activity at 100,000 nM, then the relative activity was reported.

mMC1R = mMC1R (Mus musculus, UniProt Q01727); assay: cAMP based functional bioassay (CRE/β-galactosidase reporter), agonist activity at mMC1R; conditions: for mMC1R Activity @ 10 μM (class) / mMC1R Activity @ 10 μM (relative activity, percent): reported where receptor not activated to full activity
Protocol: as §1, §2, §3

mMC4R = mMC4R (Mus musculus, UniProt P56450); assay: cAMP based functional bioassay (CRE/β-galactosidase reporter), agonist activity at mMC4R; conditions: for mMC4R Activity @ 10 μM (class) / mMC4R Activity @ 10 μM (relative activity, percent): reported where receptor not activated to full activity
mMC4R, sequence (P56450 whole entry): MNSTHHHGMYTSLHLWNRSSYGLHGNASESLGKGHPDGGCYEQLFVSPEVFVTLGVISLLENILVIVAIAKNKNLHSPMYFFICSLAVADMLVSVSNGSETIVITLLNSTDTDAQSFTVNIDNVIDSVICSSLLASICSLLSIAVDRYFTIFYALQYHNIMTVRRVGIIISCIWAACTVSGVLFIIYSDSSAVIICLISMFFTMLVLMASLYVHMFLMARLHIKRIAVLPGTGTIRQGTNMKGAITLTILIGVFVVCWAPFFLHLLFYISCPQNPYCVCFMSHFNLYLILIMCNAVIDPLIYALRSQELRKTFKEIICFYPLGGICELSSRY
Protocol: as §1, §2, §3

mMC3R = mMC3R (Mus musculus, UniProt P33033); assay: cAMP based functional bioassay (CRE/β-galactosidase reporter), agonist activity at mMC3R; conditions: for mMC3R Activity @ 10 μM (class) / mMC3R Activity @ 10 μM (relative activity, percent): reported where receptor not activated to full activity
mMC3R, sequence (P33033 whole entry): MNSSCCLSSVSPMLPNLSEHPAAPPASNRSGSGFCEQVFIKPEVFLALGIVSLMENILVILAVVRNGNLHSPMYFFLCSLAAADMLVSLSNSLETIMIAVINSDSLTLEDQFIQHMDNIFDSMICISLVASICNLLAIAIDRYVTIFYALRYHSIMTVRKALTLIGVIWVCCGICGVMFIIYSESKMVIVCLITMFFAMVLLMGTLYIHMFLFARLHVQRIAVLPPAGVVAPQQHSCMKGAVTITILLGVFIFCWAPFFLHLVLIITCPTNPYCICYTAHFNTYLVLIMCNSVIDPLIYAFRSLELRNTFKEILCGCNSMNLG
Protocol: as §1, §2, §3

mMC5R, sequence (P41149 whole entry): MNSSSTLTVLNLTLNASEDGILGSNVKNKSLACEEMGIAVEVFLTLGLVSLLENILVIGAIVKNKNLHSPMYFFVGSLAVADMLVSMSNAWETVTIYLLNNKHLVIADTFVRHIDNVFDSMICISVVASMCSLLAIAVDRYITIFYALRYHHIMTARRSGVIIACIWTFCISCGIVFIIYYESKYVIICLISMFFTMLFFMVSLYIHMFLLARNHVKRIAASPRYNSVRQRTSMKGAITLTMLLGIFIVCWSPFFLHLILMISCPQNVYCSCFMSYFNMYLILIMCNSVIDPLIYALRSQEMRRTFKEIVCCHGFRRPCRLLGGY
mMC1R, sequence (Q01727 whole entry): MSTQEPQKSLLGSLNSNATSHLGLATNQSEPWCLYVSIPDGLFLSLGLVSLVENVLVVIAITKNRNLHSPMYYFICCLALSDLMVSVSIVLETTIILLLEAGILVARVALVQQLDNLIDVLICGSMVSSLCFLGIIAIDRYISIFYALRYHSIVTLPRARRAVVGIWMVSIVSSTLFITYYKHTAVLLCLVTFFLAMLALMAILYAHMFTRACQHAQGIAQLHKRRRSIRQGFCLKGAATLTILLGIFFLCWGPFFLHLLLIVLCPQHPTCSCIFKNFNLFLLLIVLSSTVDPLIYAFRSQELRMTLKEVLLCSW

Row | EC50 (mMC5R) | EC50 (mMC1R) | mMC4R Activity @ 10 μM (class) (mMC4R) | mMC4R Activity @ 10 μM (relative activity, percent) (mMC4R) | EC50 (mMC3R) | mMC1R Activity @ 10 μM (class) (mMC1R) | mMC1R Activity @ 10 μM (relative activity, percent) (mMC1R) | mMC3R Activity @ 10 μM (class) (mMC3R) | mMC3R Activity @ 10 μM (relative activity, percent) (mMC3R) | EC50 (mMC4R) | Structure (SMILES)
1 | 940 ± 340 nM | 2300 ± 1000 nM | A (A: <50%) | 27% | 6200 ± 5400 nM | – | – | – | – | – | CCC[C@@H]1CN([C@H](Cc2ccccc2)CN2CCC[C@H]2CN2C(=N)NC[C@H]2C(C)C)C(=N)N1CC1CCC(C(C)(C)C)CC1 (stereo partly drawn) [TPI 2509-35, (R)-3-((4-(tert-butyl)cyclohexyl)methyl)-1-((R)-1-((S)-2-(((R)-2-imino-5-isopropylimidazolidin-1-yl)methyl)pyrrolidin-1-yl)-3-phenylpropan-2-yl)-4-propylimidazolidin-2-imine]
2 | 1850 ± 800 nM | – | B (B: >51%) | – | – | B (B: >51%) | 50% | A (A: <50%) | 33% | – | CC(C)CCCN1C(=N)N([C@H](CC2CCCCC2)CN2CCC[C@H]2CN2C(=N)NC[C@H]2CC(C)C)C[C@H]1C(C)C [TPI 2509-12]
3 | 1040 ± 150 nM | – | A (A: <50%) | 40% | – | B (B: >51%) | – | B (B: >51%) | – | – | CCC[C@@H]1CN([C@H](CC2CCCCC2)CN2CCC[C@H]2CN2C(=N)NC[C@H]2C(C)C)C(=N)N1CCCC(C)C [TPI 2509-27]
4 | 440 ± 110 nM | 15500 ± 14000 nM | – | – | – | – | – | B (B: >51%) | 67% | 8200 ± 3550 nM | CC(C)C[C@@H]1CNC(=N)N1C[C@@H]1CCCN1C[C@@H](Cc1ccccc1)N1C[C@@H](C(C)C)N(CC23CC4CC(CC(C4)C2)C3)C1=N [TPI 2509-19, (R)-3-(adamantan-1-ylmethyl)-1-((R)-1-((S)-2-(((R)-2-imino-5-isobutylimidazolidin-1-yl)methyl)pyrrolidin-1-yl)-3-phenylpropan-2-yl)-4-isopropylimidazolidin-2-imine]
5 | 580 ± 160 nM | 300 ± 30 nM | A (A: <50%) | 40% | 3700 ± 880 nM | – | – | – | – | – | CC(C)[C@@H]1CNC(=N)N1C[C@@H]1CCCN1C[C@@H](CC1CCCCC1)N1C[C@@H](C(C)C)N(CC23CC4CC(CC(C4)C2)C3)C1=N [TPI 2509-28, (R)-3-(adamantan-1-ylmethyl)-1-((R)-1-cyclohexyl-3-((S)-2-(((R)-2-imino-5-isopropylimidazolidin-1-yl)methyl)pyrrolidin-1-yl)propan-2-yl)-4-isopropylimidazolidin-2-imine]
6 | 630 ± 50 nM | 7300 ± 4400 nM | A (A: <50%) | – | – | – | – | B (B: >51%) | 58% | – | CC(C)CCCN1C(=N)N([C@H](CC2CCCCC2)CN2CCC[C@H]2CN2C(=N)NC[C@H]2CC(C)C)C[C@H]1[C@H](C)O [TPI 2509-6]
7 | 510 ± 50 nM | 290 ± 20 nM | A (A: <50%) | 28% | 4300 ± 3300 nM | – | – | – | – | – | CC(C)[C@@H]1CNC(=N)N1C[C@@H]1CCCN1C[C@@H](CC1CCCCC1)N1C[C@@H](C(C)C)N(CC2CCC(C(C)(C)C)CC2)C1=N (stereo partly drawn) [TPI 2509-29, (R)-3-((4-(tert-butyl)cyclohexyl)methyl)-1-((R)-1-cyclohexyl-3-((S)-2-(((R)-2-imino-5-isopropylimidazolidin-1-yl)methyl)pyrrolidin-1-yl)propan-2-yl)-4-isopropylimidazolidin-2-imine]
8 | 590 ± 180 nM | 550 nM | A (A: <50%) | 45% | 2800 ± 1800 nM | – | – | – | – | – | CCC[C@@H]1CN([C@H](CC2CCCCC2)CN2CCC[C@H]2CN2C(=N)NC[C@H]2C(C)C)C(=N)N1CC12CC3CC(CC(C3)C1)C2 [TPI 2509-25, (R)-3-(adamantan-1-ylmethyl)-1-((R)-1-cyclohexyl-3-((S)-2-(((R)-2-imino-5-isopropylimidazolidin-1-yl)methyl)pyrrolidin-1-yl)propan-2-yl)-4-propylimidazolidin-2-imine]
9 | 660 ± 130 nM | 47800 ± 23100 nM | B (B: >51%) | 54% | 4000 ± 1900 nM | – | – | – | – | – | CC(C)[C@@H]1CNC(=N)N1C[C@@H]1CCCN1C[C@@H](Cc1ccccc1)N1C[C@@H](C(C)C)N(CC23CC4CC(CC(C4)C2)C3)C1=N [TPI 2509-37, (R)-3-(adamantan-1-ylmethyl)-1-((R)-1-((S)-2-(((R)-2-imino-5-isopropylimidazolidin-1-yl)methyl)pyrrolidin-1-yl)-3-phenylpropan-2-yl)-4-isopropylimidazolidin-2-imine]
10 | 560 ± 50 nM | – | – | – | – | B (B: >51%) | 54% | B (B: >51%) | 69% | – | CC(C)C[C@@H]1CNC(=N)N1C[C@@H]1CCCN1C[C@@H](CC1CCCCC1)N1C[C@@H](C(C)C)N(CC2CCC(C(C)(C)C)CC2)C1=N (stereo partly drawn) [TPI 2509-11, (R)-3-((4-(tert-butyl)cyclohexyl)methyl)-1-((R)-1-cyclohexyl-3-((S)-2-(((R)-2-imino-5-isobutylimidazolidin-1-yl)methyl)pyrrolidin-1-yl)propan-2-yl)-4-isopropylimidazolidin-2-imine]
11 | 740 ± 270 nM | 700 ± 80 nM | – | – | 5200 ± 1540 nM | – | – | – | – | – | CC(C)CCCN1C(=N)N([C@H](CC2CCCCC2)CN2CCC[C@H]2CN2C(=N)NC[C@H]2C(C)C)C[C@H]1[C@@H](C)O [TPI 2509-24, (R)-1-((S)-1-((R)-1-cyclohexyl-3-((S)-2-(((R)-2-imino-5-isopropylimidazolidin-1-yl)methyl)pyrrolidin-1-yl)propan-2-yl)-2-imino-3-(4-methylpentyl)imidazolidin-4-yl)ethanol]
12 | 1700 ± 520 nM | 6100 nM | B (B: >51%) | – | – | – | – | B (B: >51%) | – | – | CC(C)CCCN1C(=N)N([C@H](CC2CCCCC2)CN2CCC[C@H]2CN2C(=N)NC[C@H]2C(C)C)C[C@H]1C(C)C [TPI 2509-30, (R)-1-((R)-1-cyclohexyl-3-((S)-2-(((R)-2-imino-5-isopropylimidazolidin-1-yl)methyl)pyrrolidin-1-yl)propan-2-yl)-4-isopropyl-3-(4-methylpentyl)imidazolidin-2-imine]
13 | 600 ± 170 nM | 29100 ± 20000 nM | – | – | – | – | – | B (B: >51%) | 68% | – | CC(C)[C@@H]1CNC(=N)N1C[C@@H]1CCCN1C[C@@H](Cc1ccccc1)N1C[C@@H](C(C)C)N(CC2CCC(C(C)(C)C)CC2)C1=N (stereo partly drawn) [TPI 2509-38, (R)-3-((4-(tert-butyl)cyclohexyl)methyl)-1-((R)-1-((S)-2-(((R)-2-imino-5-isopropylimidazolidin-1-yl)methyl)pyrrolidin-1-yl)-3-phenylpropan-2-yl)-4-isopropylimidazolidin-2-imine]
14 | 500 ± 40 nM | 570 ± 150 nM | A (A: <50%) | 50% | – | – | – | B (B: >51%) | 70% | – | CC(C)C[C@@H]1CNC(=N)N1C[C@@H]1CCCN1C[C@@H](CC1CCCCC1)N1C[C@@H](C(C)C)N(CC23CC4CC(CC(C4)C2)C3)C1=N [TPI 2509-10]
15 | 1800 ± 130 nM | 2300 ± 90 nM | – | – | – | – | – | B (B: >51%) | 58% | 6700 ± 2400 nM | CCC[C@@H]1CN([C@H](CC2CCCCC2)CN2CCC[C@H]2CN2C(=N)NC[C@H]2CC(C)C)C(=N)N1CCCC(C)C [TPI 2509-9]
16 | 530 ± 50 nM | 500 ± 50 nM | B (B: >51%) | 65% | – | – | – | B (B: >51%) | 75% | – | CCC[C@@H]1CN([C@H](CC2CCCCC2)CN2CCC[C@H]2CN2C(=N)NC[C@H]2CC(C)C)C(=N)N1CC1CCC(C(C)(C)C)CC1 (stereo partly drawn) [TPI 2509-8, (R)-3-((4-(tert-butyl)cyclohexyl)methyl)-1-((R)-1-cyclohexyl-3-((S)-2-(((R)-2-imino-5-isobutylimidazolidin-1-yl)methyl)pyrrolidin-1-yl)propan-2-yl)-4-propylimidazolidin-2-imine]
17 | 470 ± 90 nM | – | A (A: <50%) | 51% | – | B (B: >51%) | 70% | B (B: >51%) | 67% | – | CCC[C@@H]1CN([C@H](CC2CCCCC2)CN2CCC[C@H]2CN2C(=N)NC[C@H]2CC(C)C)C(=N)N1CC12CC3CC(CC(C3)C1)C2 [TPI 2509-7]
18 | 610 ± 160 nM | 7000 ± 6100 nM | – | – | – | – | – | B (B: >51%) | 74% | 1330 ± 510 nM | CCC[C@@H]1CN([C@H](Cc2ccccc2)CN2CCC[C@H]2CN2C(=N)NC[C@H]2CC(C)C)C(=N)N1CC12CC3CC(CC(C3)C1)C2 [TPI 2509-16, (R)-3-(adamantan-1-ylmethyl)-1-((R)-1-((S)-2-(((R)-2-imino-5-isobutylimidazolidin-1-yl)methyl)pyrrolidin-1-yl)-3-phenylpropan-2-yl)-4-propylimidazolidin-2-imine]
19 | 6600 ± 5740 nM | 6700 ± 4700 nM | – | – | 2000 ± 850 nM | – | – | – | – | 1400 ± 760 nM | CCC[C@@H]1CN([C@H](Cc2ccccc2)CN2CCC[C@H]2CN2C(=N)NC[C@H]2C(C)C)C(=N)N1CC12CC3CC(CC(C3)C1)C2 [TPI 2509-34, (R)-3-(adamantan-1-ylmethyl)-1-((R)-1-((S)-2-(((R)-2-imino-5-isopropylimidazolidin-1-yl)methyl)pyrrolidin-1-yl)-3-phenylpropan-2-yl)-4-propylimidazolidin-2-imine]

— patent publication US11932628B2, “Selective small molecule peptidomimetic melanocortin ligands” (REGENTS OF THE UNIVERSITY OF MINNESOTA, priority 2021, dated 2024)
